Measured values taken from US20230085307A1, “PYRIDAZINONE COMPOUND AND HERBICIDE” (NISSAN CHEMICAL CORPORATION, priority 2019, published 2023).

What was measured:
late watergrass = experiment: Test Example 1: herbicidal activity, application before weed generation under submerged conditions (Table 16, symbol A); format: in vivo, late watergrass (Echinochloa oryzicola); conditions: 320 g/ha applied herbicide
How it was run: (§1)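 Alluvial soil was flooded to 4 cm depth, weed seeds were sown mixed and 2.5-leaf rice seedlings were transplanted. On sowing day, the compound's emulsion, diluted in water to a set dose, was applied to the water surface. Plants grew at 25–30 °C and were scored 0–5 after three weeks.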

Japanese bulrush = experiment: Test Example 1: herbicidal activity, application before weed generation under submerged conditions (Table 16, symbol B); format: in vivo, Japanese bulrush (Schoenoplectus juncoides); conditions: 320 g/ha applied herbicide
How it was run: as §1

oval-leafed pondweed = experiment: Test Example 1: herbicidal activity, application before weed generation under submerged conditions (Table 16, symbol C); format: in vivo, oval-leafed pondweed (Monochoria vaginalis); conditions: 320 g/ha applied herbicide
How it was run: as §1

barnyard grass [1] = experiment: Test Example 3: herbicidal effect by foliage application, Wagner pot (Table 18, symbol H); format: in vivo, barnyard grass (Echinochloa crus-galli); conditions: 320 g/ha
How it was run: (§2)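 Plants were sown in alluvial soil held under 0.1–0.5 cm standing water and grown 14 days in a greenhouse at 25–30 °C. An emulsifiable formulation, water-diluted to the set dose, was then sprayed onto the foliage, and effects were scored three weeks later using previously defined criteria.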

Chinese sprangletop = experiment: Test Example 3: herbicidal effect by foliage application, Wagner pot (Table 18, symbol D); format: in vivo, chinese sprangletop (Leptochloa chinensis); conditions: 320 g/ha
How it was run: as §2

rice flat sedge = experiment: Test Example 3: herbicidal effect by foliage application, Wagner pot (Table 18, symbol E); format: in vivo, rice flat sedge (Cyperus iria); conditions: 320 g/ha
How it was run: as §2

southern crabgrass [2] = experiment: Test Example 4: herbicidal effect by soil treatment (Table 19, symbol F); format: in vivo, southern crabgrass (Digitaria ciliaris); conditions: amount of applied herbicide 320 g/ha
How it was run: (§3)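 Seeds were sown in sterilized diluvial soil and covered with about 1.5 cm of soil. An emulsion formulation diluted with water to a predetermined herbicide amount was sprayed evenly onto the soil surface. Plants grew in a greenhouse at 25° C. to 30° C., and the effect was scored three weeks after application using criteria from an earlier test.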

green foxtail [3] = experiment: Test Example 4: herbicidal effect by soil treatment (Table 19, symbol G); format: in vivo, green foxtail (Setaria viridis); conditions: amount of applied herbicide 320 g/ha
How it was run: as §3

barnyard grass [4] = experiment: Test Example 4: herbicidal effect by soil treatment (Table 19, symbol H); format: in vivo, barnyard grass (Echinochloa crus-galli); conditions: amount of applied herbicide 320 g/ha
How it was run: as §3

wild oat [5] = experiment: Test Example 4: herbicidal effect by soil treatment (Table 19, symbol I); format: in vivo, wild oat (Avena fatua); conditions: amount of applied herbicide 320 g/ha
How it was run: as §3

blackgrass [6] = experiment: Test Example 4: herbicidal effect by soil treatment (Table 19, symbol J); format: in vivo, blackgrass (Alopecurus myosuroides); conditions: amount of applied herbicide 320 g/ha
How it was run: as §3

Italian ryegrass [7] = experiment: Test Example 4: herbicidal effect by soil treatment (Table 19, symbol K); format: in vivo, Italian ryegrass (Lolium multiflorum); conditions: amount of applied herbicide 320 g/ha
How it was run: as §3

windgrass [8] = experiment: Test Example 4: herbicidal effect by soil treatment (Table 19, symbol L); format: in vivo, windgrass (Apera spica-venti); conditions: amount of applied herbicide 320 g/ha
How it was run: as §3

velvetleaf [9] = experiment: Test Example 4: herbicidal effect by soil treatment (Table 19, symbol M); format: in vivo, velvetleaf (Abutilon theophrasti); conditions: amount of applied herbicide 320 g/ha
How it was run: as §3

redroot pigweed [10] = experiment: Test Example 4: herbicidal effect by soil treatment (Table 19, symbol N); format: in vivo, redroot pigweed (Amaranthus retroflexus); conditions: amount of applied herbicide 320 g/ha
How it was run: as §3

lambsquarters [11] = experiment: Test Example 4: herbicidal effect by soil treatment (Table 19, symbol O); format: in vivo, lambsquarters (Chenopodium album); conditions: amount of applied herbicide 320 g/ha
How it was run: as §3

chickweed [12] = experiment: Test Example 4: herbicidal effect by soil treatment (Table 19, symbol P); format: in vivo, common chickweed (Stellaria media); conditions: amount of applied herbicide 320 g/ha
How it was run: as §3

false cleavers [13] = experiment: Test Example 4: herbicidal effect by soil treatment (Table 19, symbol Q); format: in vivo, false cleavers (Galium spurium); conditions: amount of applied herbicide 320 g/ha
How it was run: as §3

persian speedwell [14] = experiment: Test Example 4: herbicidal effect by soil treatment (Table 19, symbol R); format: in vivo, Persian speedwell (Veronica persica); conditions: amount of applied herbicide 320 g/ha
How it was run: as §3

southern crabgrass [15] = experiment: Test Example 5: herbicidal effect by foliage application, plastic box (Table 20, symbol F); format: in vivo, southern crabgrass (Digitaria ciliaris); conditions: foliage application, 320 g/ha, three weeks after application
How it was run: (§4)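 Plants sown in sterilized diluvial soil and grown 14 days in a greenhouse at 25° C to 30° C, then sprayed on the foliage with the compound's emulsion diluted in water to a predetermined herbicide amount. Injury to weeds and crops scored three weeks after application on a visual rating scale.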

green foxtail [16] = experiment: Test Example 5: herbicidal effect by foliage application, plastic box (Table 20, symbol G); format: in vivo, green foxtail (Setaria viridis); conditions: foliage application, 320 g/ha, three weeks after application
How it was run: as §4

barnyard grass [17] = experiment: Test Example 5: herbicidal effect by foliage application, plastic box (Table 20, symbol H); format: in vivo, barnyard grass (Echinochloa crus-galli); conditions: foliage application, 320 g/ha, three weeks after application
How it was run: as §4

wild oat [18] = experiment: Test Example 5: herbicidal effect by foliage application, plastic box (Table 20, symbol I); format: in vivo, wild oat (Avena fatua); conditions: foliage application, 320 g/ha, three weeks after application
How it was run: as §4

blackgrass [19] = experiment: Test Example 5: herbicidal effect by foliage application, plastic box (Table 20, symbol J); format: in vivo, blackgrass (Alopecurus myosuroides); conditions: foliage application, 320 g/ha, three weeks after application
How it was run: as §4

Italian ryegrass [20] = experiment: Test Example 5: herbicidal effect by foliage application, plastic box (Table 20, symbol K); format: in vivo, Italian ryegrass (Lolium multiflorum); conditions: foliage application, 320 g/ha, three weeks after application
How it was run: as §4

windgrass [21] = experiment: Test Example 5: herbicidal effect by foliage application, plastic box (Table 20, symbol L); format: in vivo, windgrass (Apera spica-venti); conditions: foliage application, 320 g/ha, three weeks after application
How it was run: as §4

velvetleaf [22] = experiment: Test Example 5: herbicidal effect by foliage application, plastic box (Table 20, symbol M); format: in vivo, velvetleaf (Abutilon theophrasti); conditions: foliage application, 320 g/ha, three weeks after application
How it was run: as §4

redroot pigweed [23] = experiment: Test Example 5: herbicidal effect by foliage application, plastic box (Table 20, symbol N); format: in vivo, redroot pigweed (Amaranthus retroflexus); conditions: foliage application, 320 g/ha, three weeks after application
How it was run: as §4

lambsquarters [24] = experiment: Test Example 5: herbicidal effect by foliage application, plastic box (Table 20, symbol O); format: in vivo, lambsquarters (Chenopodium album); conditions: foliage application, 320 g/ha, three weeks after application
How it was run: as §4

chickweed [25] = experiment: Test Example 5: herbicidal effect by foliage application, plastic box (Table 20, symbol P); format: in vivo, common chickweed (Stellaria media); conditions: foliage application, 320 g/ha, three weeks after application
How it was run: as §4

false cleavers [26] = experiment: Test Example 5: herbicidal effect by foliage application, plastic box (Table 20, symbol Q); format: in vivo, false cleavers (Galium spurium); conditions: foliage application, 320 g/ha, three weeks after application
How it was run: as §4

persian speedwell [27] = experiment: Test Example 5: herbicidal effect by foliage application, plastic box (Table 20, symbol R); format: in vivo, Persian speedwell (Veronica persica); conditions: foliage application, 320 g/ha, three weeks after application
How it was run: as §4

CCCC(=O)Oc1c(C)nn(C)c(=O)c1-c1c(-c2ccc(OC)c(C)c2)sc2ccccc12 [1-069]
Herbicidal effect on A: late watergrass (grade 0-5) (late watergrass): 3 (Herbicidal rate of 40% or more and less than 70%)
Herbicidal effect on B: Japanese bulrush (grade 0-5) (Japanese bulrush): 3 (Herbicidal rate of 40% or more and less than 70%)
Herbicidal effect on C: oval-leafed pondweed (grade 0-5) (oval-leafed pondweed): 3 (Herbicidal rate of 40% or more and less than 70%)
herbicidal effect on H (barnyard grass), rating 0-5 (barnyard grass [1]): 3 (Herbicidal rate of 40% or more and less than 70%)
herbicidal effect on D (Chinese sprangletop), rating 0-5 (Chinese sprangletop): 0 (Herbicidal rate of 5% or less (almost no effect))
herbicidal effect on E (rice flat sedge), rating 0-5 (rice flat sedge): 5 (Herbicidal rate of 90% or more (almost completely withered))
herbicidal effect rating, F: southern crabgrass (southern crabgrass [2]): 0 (Herbicidal rate of 5% or less (almost no effect))
herbicidal effect rating, G: green foxtail (green foxtail [3]): 0 (Herbicidal rate of 5% or less (almost no effect))
herbicidal effect rating, H: barnyard grass (barnyard grass [4]): 0 (Herbicidal rate of 5% or less (almost no effect))
herbicidal effect rating, I: wild oat (wild oat [5]): 0 (Herbicidal rate of 5% or less (almost no effect))
herbicidal effect rating, J: blackgrass (blackgrass [6]): 0 (Herbicidal rate of 5% or less (almost no effect))
herbicidal effect rating, K: Italian ryegrass (Italian ryegrass [7]): 0 (Herbicidal rate of 5% or less (almost no effect))
herbicidal effect rating, L: windgrass (windgrass [8]): 0 (Herbicidal rate of 5% or less (almost no effect))
herbicidal effect rating, M: velvetleaf (velvetleaf [9]): 0 (Herbicidal rate of 5% or less (almost no effect))
herbicidal effect rating, N: redroot pigweed (redroot pigweed [10]): 0 (Herbicidal rate of 5% or less (almost no effect))
herbicidal effect rating, O: lambsquarters (lambsquarters [11]): 0 (Herbicidal rate of 5% or less (almost no effect))
herbicidal effect rating, P: chickweed (chickweed [12]): 3 (Herbicidal rate of 40% or more and less than 70%)
herbicidal effect rating, Q: false cleavers (false cleavers [13]): 0 (Herbicidal rate of 5% or less (almost no effect))
herbicidal effect rating, R: persian speedwell (persian speedwell [14]): 4 (Herbicidal rate of 70% or more and less than 90%)
herbicidal effect grade, F: southern crabgrass (southern crabgrass [15]): 0 (Herbicidal rate of 5% or less (almost no effect))
herbicidal effect grade, G: green foxtail (green foxtail [16]): 0 (Herbicidal rate of 5% or less (almost no effect))
herbicidal effect grade, H: barnyard grass (barnyard grass [17]): 0 (Herbicidal rate of 5% or less (almost no effect))
herbicidal effect grade, I: wild oat (wild oat [18]): 1 (Herbicidal rate of 5% or more and less than 20%)
herbicidal effect grade, J: blackgrass (blackgrass [19]): 0 (Herbicidal rate of 5% or less (almost no effect))
herbicidal effect grade, K: Italian ryegrass (Italian ryegrass [20]): 3 (Herbicidal rate of 40% or more and less than 70%)
herbicidal effect grade, L: windgrass (windgrass [21]): 0 (Herbicidal rate of 5% or less (almost no effect))
herbicidal effect grade, M: velvetleaf (velvetleaf [22]): 5 (Herbicidal rate of 90% or more (almost completely withered))
herbicidal effect grade, N: redroot pigweed (redroot pigweed [23]): 5 (Herbicidal rate of 90% or more (almost completely withered))
herbicidal effect grade, O: lambsquarters (lambsquarters [24]): 0 (Herbicidal rate of 5% or less (almost no effect))
herbicidal effect grade, P: chickweed (chickweed [25]): 4 (Herbicidal rate of 70% or more and less than 90%)
herbicidal effect grade, Q: false cleavers (false cleavers [26]): 0 (Herbicidal rate of 5% or less (almost no effect))
herbicidal effect grade, R: persian speedwell (persian speedwell [27]): 4 (Herbicidal rate of 70% or more and less than 90%)
